Tested on: Cushing's syndrome patients
Test: Cushing's syndrome patient study: bone markers
Type: in vivo, human
Design: Serμm Bone Alkaline Phosphatase mean change from Baseline to Last Observed: unit not given here
Conditions: All Subjects
From the text: All patients gave informed consent before participating in any study-related procedures. […] The study protocol called for patient visits to the study site at screening, on Day 1 (baseline), Weeks 2, 4, 6, 8, 10, and 12, and after a 4-week follow-up period for Group 1. For Group 2, the protocol called for patient visits to the study site at screening, on Day 1 (baseline), Weeks 2, 4, 6, 8, 10, 12, 14, and 16, and after a 4-week follow-up period. Patient dosing will be done at home, except on days of study visits. […] It ignores noncompliance, protocol deviations, withdrawal, and anything that happens after randomization. In contrast, per-protocol (PP) analysis refers to inclusion in the analysis of only those patients who strictly adhered to the protocol. The PP analysis provides an estimate of the true efficacy of an intervention, i.e., among those who completed the treatment as planned.

[1] = mITT, Group 1 (100-200 mg/day, 12 weeks)
[2] = mITT, Group 2 (250-400 mg/day, 16 weeks)
[3] = mPP, Group 1 (100-200 mg/day, 12 weeks)
[4] = mPP, Group 2 (250-400 mg/day, 16 weeks)

Cn1cc(S(=O)(=O)N2CCC3=Cc4c(cnn4-c4ccc(F)cc4)C[C@]3(C(=O)c3cc(C(F)(F)F)ccn3)C2)cn1 [relacorilant, (R)-(1-(4-fluorophenyl)-6-((1-methyl-1H-pyrazol-4-yl)sulfonyl)-4,4a,5,6,7,8-hexahydro-1H-pyrazolo[3,4-g]isoquinolin-4a-yl) (4-(trifluoromethyl)pyridin-2-yl)methanone]
Serμm Bone Alkaline Phosphatase mean change from Baseline to Last Observed [1]: 1.82 | Serμm Osteocalcin mean change from Baseline to Last Observed [1]: 4.57 µg/L | Urinary NTx mean change from Baseline to Last Observed [1]: 2.21 nmolBCE/mmol | Serμm Bone Alkaline Phosphatase mean change from Baseline to Last Observed [2]: −1.09 | Serμm Osteocalcin mean change from Baseline to Last Observed [2]: 1.33 µg/L | Urinary NTx mean change from Baseline to Last Observed [2]: 0.63 nmolBCE/mmol | Serμm Bone Alkaline Phosphatase mean change from Baseline to Last Observed (mITT, Overall): 0.41 | Serμm Osteocalcin mean change from Baseline to Last Observed (mITT, Overall): 3 µg/L | Urinary NTx mean change from Baseline to Last Observed (mITT, Overall): 1.37 nmolBCE/mmol | Serμm Bone Alkaline Phosphatase mean change from Baseline to Last Observed [3]: 1.82 | Serμm Osteocalcin mean change from Baseline to Last Observed [3]: 4.68 µg/L | Urinary NTx mean change from Baseline to Last Observed [3]: 2.21 nmolBCE/mmol | Serμm Bone Alkaline Phosphatase mean change from Baseline to Last Observed [4]: −1.09 | Serμm Osteocalcin mean change from Baseline to Last Observed [4]: 1.33 µg/L | Urinary NTx mean change from Baseline to Last Observed [4]: 0.63 nmolBCE/mmol | Serμm Bone Alkaline Phosphatase mean change from Baseline to Last Observed (mPP, Overall): 0.41 | Serμm Osteocalcin mean change from Baseline to Last Observed (mPP, Overall): 3.06 µg/L | Urinary NTx mean change from Baseline to Last Observed (mPP, Overall): 1.37 nmolBCE/mmol

From patent US12097192B2 (Corcept Therapeutics Incorporated, priority 2019, dated 2024)
